The text below walks through data of US11919901B2 (Syndax Pharmaceuticals, Inc., priority 2021, dated 2024).

The test has as its target Menin-MLL (Homo sapiens (Human), UniProt O00255). Kind of test: Determination of binding constants (Ki) to Menin-MLL (HTRF). As to conditions: HTRF, 0.25 nM H-FL-Menin, 3.2 nM FITC-MLL-4-43, 24 hr incubation; for Ki: read-out: Menin-MLL Ki HTRF Assay: Ki.

Chain of Menin-MLL (O00255 whole entry): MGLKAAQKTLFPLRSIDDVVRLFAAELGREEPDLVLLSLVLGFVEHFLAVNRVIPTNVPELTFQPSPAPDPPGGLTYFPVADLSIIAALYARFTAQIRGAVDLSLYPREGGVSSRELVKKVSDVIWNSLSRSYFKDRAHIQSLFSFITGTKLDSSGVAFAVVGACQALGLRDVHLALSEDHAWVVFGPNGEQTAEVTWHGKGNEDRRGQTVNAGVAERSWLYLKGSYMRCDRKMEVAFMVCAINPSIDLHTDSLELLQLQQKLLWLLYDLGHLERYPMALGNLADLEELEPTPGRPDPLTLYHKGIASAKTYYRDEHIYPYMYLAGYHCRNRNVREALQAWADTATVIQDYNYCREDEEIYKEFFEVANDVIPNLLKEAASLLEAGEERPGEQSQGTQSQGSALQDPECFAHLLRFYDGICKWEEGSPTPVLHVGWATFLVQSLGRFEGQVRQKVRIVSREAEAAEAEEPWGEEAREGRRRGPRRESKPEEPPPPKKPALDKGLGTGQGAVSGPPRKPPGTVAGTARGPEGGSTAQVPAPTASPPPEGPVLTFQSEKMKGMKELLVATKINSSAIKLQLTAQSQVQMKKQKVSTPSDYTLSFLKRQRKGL

A word on the Ki: it is the equilibrium dissociation constant of an inhibitor or competing ligand from its target. With `CCS(=O)(=O)N[C@@H]1CC[C@@H](CN2CCC3(CC2)CN(c2ncnnc2Oc2ccc(F)cc2C(=O)N(CC(F)(F)F)C(C)C)C3)OC1` [Compound 190, 2-((5-(7-(((2S,5R)-5-(Ethylsulfonamido)tetrahydro-2H-pyran-2-yl)methyl)-2,7-diazaspiro[3.5]nonan-2-yl)-1,2,4-triazin-6-yl)oxy)-5-fluoro-N-isopropyl-N-(2,2,2-trifluoroethyl)benzamide], the Ki was under 1 nM.
A word on the EC50: it is the concentration at which the effect is half-maximal. A low value points to higher potency in that assay. `CCS(=O)(=O)N[C@@H]1CC[C@@H](CN2CCC3(CC2)CN(c2ncncc2Oc2ccc(F)cc2C(=O)N(C(C)C)C2COC2)C3)OC1` [Compound 48, 2-((4-(7-(((2S,5R)-5-(ethylsulfonamido)tetrahydro-2H-pyran-2-yl)methyl)-2,7-diazaspiro[3.5]nonan-2-yl)pyrimidin-5-yl)oxy)-5-fluoro-N-isopropyl-N-(oxetan-3-yl)benzamide]: the concentration for a half-maximal effect (EC50) was under 50 nM and the Ki was under 1 nM.
With `CCS(=O)(=O)N[C@@H]1CC[C@@H](CN2CCC3(CC2)CN(c2ncnnc2Oc2ccc(F)cc2C(=O)N(CC(F)F)C(C)C)C3)OC1` [Compound 185, N-(2,2-Difluoroethyl)-2-((5-(7-(((2S,5R)-5-(ethylsulfonamido)tetrahydro-2H-pyran-2-yl)methyl)-2,7-diazaspiro[3.5]nonan-2-yl)-1,2,4-triazin-6-yl)oxy)-5-fluoro-N-isopropylbenzamide], the Ki is under 1 nM.
Same read-out and setting: under `CC(C)N(CC(F)(F)F)C(=O)c1cc(F)ccc1Oc1nncnc1N1CC2(CCN(C[C@@H]3CC[C@@H](NS(=O)(=O)c4cnn(C)c4)CO3)CC2)C1` [Compound 192, 5-Fluoro-N-isopropyl-2-((5-(7-(((2R,5S)-5-((1-methyl-1H-pyrazole)-4-sulfonamido)tetrahydro-2H-pyran-2-yl)methyl)-2,7-diazaspiro[3.5]nonan-2-yl)-1,2,4-triazin-6-yl)oxy)-N-(2,2,2-trifluoroethyl)benzamide] stands under 1 nM; under `CC(C)N(C(=O)c1cc(F)ccc1Oc1cncnc1N1CC2(CCN(C[C@@H]3CC[C@@H](NS(=O)(=O)c4ccc(=O)n(C)c4)CO3)CC2)C1)C(C)C` [Compound 92, 5-Fluoro-N,N-diisopropyl-2-((4-(7-(((2S,5R)-5-((1-methyl-6-oxo-1,6-dihydropyridine)-3-sulfonamido)tetrahydro-2H-pyran-2-yl)methyl)-2,7-diazaspiro[3.5]nonan-2-yl)pyrimidin-5-yl)oxy)benzamide], under 1 nM.
Consider `CCS(=O)(=O)N[C@@H]1CC[C@@H](CN2CCC3(CC2)CN(c2ncncc2Oc2ccc(F)cc2C(=O)N(C(C)C)[C@H]2C[C@H](O)C2)C3)OC1` [Compound 259, 2-((4-(7-(((2S,5R)-5-(Ethylsulfonamido)tetrahydro-2H-pyran-2-yl)methyl)-2,7-diazaspiro[3.5]nonan-2-yl)pyrimidin-5-yl)oxy)-5-fluoro-N-((1r,3r)-3-hydroxycyclobutyl)-N-isopropylbenzamide], for which the EC50 was under 50 nM and the Ki was under 1 nM.
For `CCS(=O)(=O)N[C@@H]1CC[C@@H](CN2CCC3(CC2)CN(c2ncncc2Oc2ccc(F)cc2C(=O)N(CCOC)C(C)C)C3)OC1` [Compound 35, 2-((4-(7-(((2S,5R)-5-(ethylsulfonamido)tetrahydro-2H-pyran-2-yl)methyl)-2,7-diazaspiro[3.5]nonan-2-yl)pyrimidin-5-yl)oxy)-5-fluoro-N-isopropyl-N-(2-methoxyethyl)benzamide] the same measures were under 50 nM and under 1 nM.
The like results for `CCN(C(=O)c1cc(F)ccc1Oc1cncnc1N1CC2(CCN(C[C@@H]3CC[C@@H](NS(=O)(=O)c4cccc(C)c4)CO3)CC2)C1)C(C)C` [Compound 60, N-ethyl-5-fluoro-N-isopropyl-2-((4-(7-(((2S,5R)-5-((3-methylphenyl)sulfonamido)tetrahydro-2H-pyran-2-yl)methyl)-2,7-diazaspiro[3.5]nonan-2-yl)pyrimidin-5-yl)oxy)benzamide] were, in that order, under 50 nM and under 1 nM.
Take `CC(C)N(C(=O)c1cc(F)ccc1Oc1cncnc1N1CC2(CCN(C[C@@H]3CC[C@@H](NS(=O)(=O)C(C)C)CO3)CC2)C1)[C@H]1CCOC1` [Compound 174, 5-Fluoro-N-isopropyl-2-((4-(7-(((2S,5R)-5-((1-methylethyl)sulfonamido)tetrahydro-2H-pyran-2-yl)methyl)-2,7-diazaspiro[3.5]nonan-2-yl)pyrimidin-5-yl)oxy)-N-((S)-tetrahydrofuran-3-yl)benzamide]: the Ki was under 1 nM.
Still for that read-out and setting: under `CC(C)N(C(=O)c1cc(F)ccc1Oc1cncnc1N1CC2(CCN(C[C@@H]3CC[C@@H](NS(=O)(=O)N4CCCC4)CO3)CC2)C1)[C@H]1CCOC1` [Compound 178, 5-Fluoro-N-isopropyl-2-((4-(7-(((2S,5R)-5-(pyrrolidine-1-sulfonamido)tetrahydro-2H-pyran-2-yl)methyl)-2,7-diazaspiro[3.5]nonan-2-yl)pyrimidin-5-yl)oxy)-N-((S)-tetrahydrofuran-3-yl)benzamide] stands under 1 nM.
On the same count and under the same terms, under `C[C@@H]1COC[C@@H](C)N1C(=O)c1cc(F)ccc1Oc1cncnc1N1CC2(CCN(C[C@@H]3CC[C@@H](NS(=O)(=O)c4cnn(C)c4)CO3)CC2)C1` [Compound 126] stands under 1 nM; under `CNS(=O)(=O)N[C@H]1CC[C@H](CN2CCC3(CC2)CN(c2ncncc2Oc2ccc(F)cc2C(=O)N(C(C)C)C2CC2)C3)OC1` (stereo in doubt) [Compound 146, N-Cyclopropyl-5-fluoro-N-isopropyl-2-((4-(7-(((2R,5S)-5-((N-methylsulfamoyl)amino)tetrahydro-2H-pyran-2-yl)methyl)-2,7-diazaspiro[3.5]nonan-2-yl)pyrimidin-5-yl)oxy)benzamide], under 1 nM.
In the case of `CC[S@@](=N)(=O)N[C@@H]1CC[C@@H](CN2CCC3(CC2)CN(c2ncncc2Oc2ccc(F)cc2C(=O)N(C(C)C)C(C)C)C3)OC1` (single isomer, unassigned) [Compound 226], the Ki is under 1 nM.
Still for that read-out and setting: under `COC[C@H]1CCCN1S(=O)(=O)N[C@@H]1CC[C@@H](CN2CCC3(CC2)CN(c2ncncc2Oc2ccc(F)cc2C(=O)N(C(C)C)C(C)C)C3)OC1` [Compound 212, 5-Fluoro-N,N-diisopropyl-2-((4-(7-(((2S,5R)-5-(((R)-2-(methoxymethyl)pyrrolidine)-1-sulfonamido)tetrahydro-2H-pyran-2-yl)methyl)-2,7-diazaspiro[3.5]nonan-2-yl)pyrimidin-5-yl)oxy)benzamide] stands under 1 nM.
On the same count and under the same terms, then `C[C@@H]1COC[C@@H](C)N1C(=O)c1cc(F)ccc1Oc1cncnc1N1CC2(CCN(C[C@@H]3CC[C@@H](NS(=O)(=O)c4ccn(C)n4)CO3)CC2)C1` [Compound 127], with under 1 nM.
As for `CCS(=O)(=O)N[C@@H]1CC[C@@H](CN2CCC3(CC2)CN(c2ncncc2Oc2ccc(F)cc2C(=O)N(C(C)C)[C@H]2C[C@@H](O)C2)C3)OC1` [Compound 50, 2-((4-(7-(((2S,5R)-5-(ethylsulfonamido)tetrahydro-2H-pyran-2-yl)methyl)-2,7-diazaspiro[3.5]nonan-2-yl)pyrimidin-5-yl)oxy)-5-fluoro-N-((1s,3s)-3-hydroxycyclobutyl)-N-isopropylbenzamide], the EC50 is under 50 nM and the Ki was under 1 nM.
